We go through one compound from patent US20060004088A1, “Furan derivatives for preventing and curing osteoporosis and pharmaceutical compositions containing the same” (OCT INC., priority 2002, published 2006).

The subject of one assay is osteoprotegerin (OPG). The assay is described as follows: Osteoprotegerin (OPG) expression in MG63 cells, OPG ELISA. The format is cell-based, human. The settings on record: for OPG expression level in MG63 cells, %: control = 100. As for the experimental part: In the following tests, three kinds of cell lines were used. The human osteosarcoma cell lines, MG-63 (ATCC No. CRL-1427) and HOS (ATCC No. CRL-1543), and mouse muscle C2C12 muscle cells (ATCC No. CRL-1772) were purchased from ATCC (American Type Culture Collection, Rockville, USA), and cultured in Dulbecco's modified Eagle's medium (DMEM) supplemented with 10% fetal bovine serum (FBS).
When MG63 cells grew confluently on 96-well plates, […] of FBS-free DMEM containing various concentrations of the Compound 1 was added to each well. After incubation for 16 hrs, the culture supernatants were collected. The amount of OPG released into the medium was determined using an OPG ELISA kit.
Background: An ELISA detects its analyte on a solid surface through an enzyme-linked reagent.

Assay [1] deals with osteoclast pregenitor cells. The assay is described as follows: Inhibition rates of furan derivatives versus osteoclast formation (TRAP staining). The assay is classed as cell-based, mice. Conditions: TRAP-positive multinucleated cells, untreated control set as 100%. The procedure, abridged:
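Non-adherent mouse bone-marrow osteoclast precursors cultured 8 days with 20 ng/ml M-CSF and 30 ng/ml RANKL in presence of compound. TRAP-positive cells with ≥3 nuclei counted; inhibition expressed relative to untreated control set at 100%.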

For assay [2], the system named is ovariectomized white mice with developed osteoporosis. The assay is described as follows: Therapeutic effect on osteoporosis, tibia histology. The assay is classed as in vivo. Conditions: four weeks after ovariectomy, then oral 220 μl in 30 ml water for four weeks. As for the experimental part: In order to evaluate effects of the compound of the present invention on treatment and prevention of osteoporosis, female white mice with osteoporosis induced by ovariectomy were used as a disease model. After ovariectomy, mice were administered with the compound of the present invention. Tibias were dissected from the mice, and observed histologically.
In order to evaluate therapeutic effect of the Compound 1 on osteoporosis, after ovariectomy, the mice were fed with solid feedstuff for four weeks. After checking progress of osteoporosis in the mice, a test group was administered with the Compound 1 for four weeks, according to the same method as described above, while a control group was fed with only solid feedstuff. Eight weeks after ovariectomy, tibia tissue specimens were prepared according to a method known the art.
The tibia tissue specimens prepared in the Experimental Example 3-2 were fixed in a Bouin's solution for about 24 hrs. Then, the tibia tissue specimens were decalcificated with 5% nitric acid for about 60 hrs in order to remove inorganic substances including calcium from the tibias, thus softening the tibias to the degree suitable for fracture. […]

The test system of assay [3] is ovariectomized female white mice. The assay is described as follows: Preventive effect on osteoporosis, bone mineral densitometer. The format is in vivo. Conditions: for Change in BMD, %: oral 10 mg per mouse. As for the experimental part:
After ovariectomy, female white mice weighing about 250 g were orally administered with 10 mg of the Compound 1 per mice for four weeks. Bone mineral density (BMD) was measured before the ovariectomy and every week during the administration of the Compound 1, using a bone mineral densitometer, XCT 540 Research SA made in Germany.
After anesthetizing the mice being bred in cages by intraperitoneal injection of a mixture of Ketamine HCl (ketara 10 mg/kg) and 2% xylazine HCl (Roupun 0.15 ml/kg), BMD measurement was made at a voxel size of 0.1×0.1 mm^2 and threshold value 280 mg/cm^2 for cancellous bone and 500 mg/cm^2 for compact bone. The analysis sites at the proximal tibias were determined by Scout scans (10 mm/sec), and BMD was measured at three slices at the determined sites by CT scans (7 mm/sec). BMD measurement was performed twice or more at the same every week during four weeks.

“Also recorded” adds a separate entry of the source.

As for `O=Cc1ccc(CO)o1` [Compound 1, 5-hydroxymethylfuran-2-carboxyaldehyde], the “effect on expression of osteoprotegerin (OPG) in osteoblasts (in words)” value with osteoprotegerin (OPG) is “increases the expression of osteoprotegerin (OPG)”. The “OPG expression level in MG63 cells, %” value in the assay with osteoprotegerin (OPG) (10^−6 M Compound 1, 16 hrs) was 866.90 ± 10.59%; in the assay on osteoprotegerin (OPG) (10^−8 M Compound 1, 16 hrs), 204.30 ± 14.96%. Moreover, the “Inhibition rate against osteoclast formation, %” value was found to be 0% in assay [1] (0.1 μM), 0% in assay [1] (1 μM) and 30% in assay [1] (10 μM). In addition, in assay [2], the “trabecular bone density, histology” value is reported as “just a slight decrease in trabecular bone density; also recorded: no trabecular bone loss”. Moreover, in assay [3] (oral 10 mg/day for four weeks after ovariectomy), the “BMD after four weeks of administration compared to before ovariectomy (in words)” value is “increase in BMD; also recorded: remarkably increased bone mineral density (BMD)”. For the same compound, the “Change in BMD, %” value is recorded as −2.5% in assay [3] (week 1 after ovariectomy, control −7.5); −3.2% in assay [3] (week 2 after ovariectomy, control −11.6); −1.8% in assay [3] (week 3 after ovariectomy, control −14.9); 3.7% in assay [3] (week 4 after ovariectomy, control −18.6).
